Test results published in ChEMBL document CHEMBL3885881, “DrugMatrix”.

Species on record: Rattus norvegicus
Test: DrugMatrix - Regimen: Daily Repeat
Format: toxicity, organism-based, Sprague-Dawley
Set-up: regimen Daily Repeat, gender Male, age 6-8 weeks
Settings: in vivo, po, route oral GAVAGE, […]; for URIC ACID / ALANINE AMINOTRANSFERASE / ALBUMIN / ALKALINE PHOSPHATASE / ASPARTATE AMINOTRANSFERASE / BLOOD UREA NITROGEN / CARBON DIOXIDE / CHOLESTEROL / CREATINE PHOSPHOKINASE / CREATININE / GLUCOSE / LACTATE DEHYDROGENASE / LIPASE / TOTAL BILIRUBIN / TOTAL PROTEIN: tissue Plasma; for ABSOLUTE BASOPHIL / ABSOLUTE EOSINOPHIL / ABSOLUTE LYMPHOCYTE / ABSOLUTE MONOCYTE / ABSOLUTE SEGMENTED NEUTROPHIL / BASOPHIL / EOSINOPHIL / ERYTHROCYTE COUNT / HEMATOCRIT / HEMOGLOBIN / LEUKOCYTE COUNT / LYMPHOCYTE / MEAN CORPUSCULAR HEMOGLOBIN / MEAN CORPUSCULAR HEMOGLOBIN CONCENTRATION / MEAN CORPUSCULAR VOLUME / MONOCYTE / NEUTROPHIL / NUCLEATED RED BLOOD CELLS / PLATELET COUNT: tissue Blood
[1] = 72 h, dose 2.5 mg/Kg, dose level Low, time 3 day
[2] = 120 h, dose 2.5 mg/Kg, dose level Low, time 5 day

## CC/C(=C(\c1ccccc1)c1ccc(OCCN(C)C)cc1)c1ccccc1 [TAMOXIFEN]
64 mg/kg, 120 h, dose level High, time 5 day
  URIC ACID: 0.67 mg/dL
[1]
  ABSOLUTE BASOPHIL: 0 CELLS/uL
  ABSOLUTE EOSINOPHIL: 0 CELLS/uL
  ABSOLUTE LYMPHOCYTE: 5987.33 CELLS/uL
  ABSOLUTE MONOCYTE: 0 CELLS/uL
  ABSOLUTE SEGMENTED NEUTROPHIL: 346 CELLS/uL
  BASOPHIL: 0%
  EOSINOPHIL: 0%
  ERYTHROCYTE COUNT: 5.38 x10E6/uL
  HEMATOCRIT: 32.47%
  HEMOGLOBIN: 12.63 G/DL
  LEUKOCYTE COUNT: 6.33 x10E3/uL
  LYMPHOCYTE: 94.33%
  MEAN CORPUSCULAR HEMOGLOBIN: 23.5 pg
  MEAN CORPUSCULAR HEMOGLOBIN CONCENTRATION: 38.9 G/DL
  MEAN CORPUSCULAR VOLUME: 60.4 fL
  MONOCYTE: 0%
  NEUTROPHIL: 5.67%
  NUCLEATED RED BLOOD CELLS: 0 /100WBC
  PLATELET COUNT: 919.67 x10E3/uL
  ALANINE AMINOTRANSFERASE: 63.33 u/L
  ALBUMIN: 3.8 G/DL
  ALKALINE PHOSPHATASE: 412.33 u/L
  ASPARTATE AMINOTRANSFERASE: 76.33 u/L
  BLOOD UREA NITROGEN: 11 mg/dL
  CARBON DIOXIDE: 34 mmol/L
  CHOLESTEROL: 44.33 mg/dL
  CREATINE PHOSPHOKINASE: 193 u/L
  CREATININE: 0.1 mg/dL
  GLUCOSE: 160.67 mg/dL
  LACTATE DEHYDROGENASE: 89 u/L
  LIPASE: 10 u/L
  TOTAL BILIRUBIN: 0.13 mg/dL
  TOTAL PROTEIN: 5.67 G/DL
  URIC ACID: 0.57 mg/dL
[2]
  ABSOLUTE BASOPHIL: 0 CELLS/uL
  ABSOLUTE EOSINOPHIL: 0 CELLS/uL
  ABSOLUTE LYMPHOCYTE: 7101.67 CELLS/uL
  ABSOLUTE MONOCYTE: 21.33 CELLS/uL
  ABSOLUTE SEGMENTED NEUTROPHIL: 443.67 CELLS/uL
  BASOPHIL: 0%
  EOSINOPHIL: 0%
  ERYTHROCYTE COUNT: 5.73 x10E6/uL
  HEMATOCRIT: 35.9%
  HEMOGLOBIN: 14 G/DL
  LEUKOCYTE COUNT: 7.57 x10E3/uL
  LYMPHOCYTE: 93.67%
  MEAN CORPUSCULAR HEMOGLOBIN: 24.43 pg
  MEAN CORPUSCULAR HEMOGLOBIN CONCENTRATION: 39.07 G/DL
  MEAN CORPUSCULAR VOLUME: 62.63 fL
  MONOCYTE: 0.33%
  NEUTROPHIL: 6%
  NUCLEATED RED BLOOD CELLS: 0.33 /100WBC
  PLATELET COUNT: 1179.33 x10E3/uL
  ALANINE AMINOTRANSFERASE: 95 u/L
  ALBUMIN: 4.13 G/DL
  ALKALINE PHOSPHATASE: 534.33 u/L
  ASPARTATE AMINOTRANSFERASE: 94.33 u/L
  BLOOD UREA NITROGEN: 11.33 mg/dL
  CARBON DIOXIDE: 31 mmol/L
  CHOLESTEROL: 43 mg/dL
  CREATINE PHOSPHOKINASE: 303.67 u/L
  CREATININE: 0.1 mg/dL
  GLUCOSE: 148.33 mg/dL
  LACTATE DEHYDROGENASE: 142.67 u/L
  LIPASE: 10.67 u/L
  TOTAL BILIRUBIN: 0.1 mg/dL
  TOTAL PROTEIN: 6 G/DL
  URIC ACID: 0.73 mg/dL
